Experimental data reported in ChEMBL document CHEMBL5375961, “Design, Synthesis, and Biological Evaluation of Trisubstituted Piperazine Derivatives as Noncovalent Severe Acute Respiratory Syndrome Coronavirus 2 Main Protease Inhibitors with Improved Antiviral Activity and Favorable Druggability” (J Med Chem, 2023).

Test system: SARS-CoV-2
Experiment: Antiviral activity against SARS-CoV-2 Delta (B.1.617.2) infected in African green monkey Vero E6 cells assessed as reduction in viral replication treated for 1 hr followed by replacement with fresh medium containing compounds measured after 23 hrs in presence of CP-100356 by qRT-PCR analysis
Type: functional, organism-based
Conditions: Severe acute respiratory syndrome coronavirus 2, Delta (B.1.617.2), Vero C1008

CC(C)(C)[C@H](NC(=O)C(F)(F)F)C(=O)N1CC2(C[C@H]1C(=O)N[C@H](C#N)C[C@@H]1CCNC1=O)SCCS2
EC50: 34 nM
